Data published in patent US20040242671A1, “Use of 2-oxo-1-pyrrolidine derivatives for the preparation of a drug” (priority 2001, published 2004).

Columns and labels:
[1] = test system: MPTP-lesioned marmoset model of Parkinson's disease; assay: Parkinsonian disability score with L-DOPA, MPTP-lesioned marmoset (Example 2); format: in vivo, marmosets (Callithrix jacchus); conditions: for Disability scores: compound A 1, 3, 10 and 30 mg/kg + L-DOPA, p>0.05
Procedure: (§1) This study was designed to investigate whether the compound ((2S)-2-[(4S)-4-(2,2-difluorovinyl)-2-oxopyrrolidinyl]butanamide) (named compound A) has anti-dyskinetic activity in the 1-methyl-4-phenyl-1,2,3,6-tetrahydropyridine (MPTP)—lesioned marmoset model of Parkinson's disease. The effect of the compound A on L-3,4-dihydroxyphenylalanine (L-DOPA)-induced dyskinesias and alleviation of anti parkinsonism symptoms was investigated.
(§2) The study was performed on nine adult marmosets (Callithrix jacchus) bred in a closed colony. The marmosets were rendered parkinsonian by subcutaneous injection of 2 mg/kg MPTP for 5 consecutive days. The marmosets were allowed to recover for 18 weeks until their parkinsonism became stable. The degree of activity and disability before and after MPTP treatment was assessed using a combination of scales that measure locomotor activity, mobility, bradykinesia and posture. Animals were treated with L-DOPA (13.9+/−0.8 mg/kg b.i.d. for 6 weeks) to prime them to elicit dyskinesia.
(§3) All drugs were administered orally in a volume of 5 ml/kg via a syringe in the animal's home cage. The animals were immediately transferred to the experimental cage (60 cm×55 cm×75 cm, with the perch 25 cm from floor of cage) for behavioural assessment. Vehicle was apple juice in all cases.
(§4) 2) Parkinsonian disability—non-parametric measures based on the following scales
(§5) a) Range of movement score: 0=no movement, 1=movement of head on the floor of the cage, 2=movement of limbs, but no locomotion, on the floor of the cage, 3=movement of head or trunk on wall of cage or perch, 4=movement of limbs, but no locomotion, on wall of cage or perch, 5=walking around floor of cage or eating from hopper on floor, 6=hopping on floor of cage, 7=climbing onto wall of cage or perch, 8=climbing up and down the walls of the cage or along perch, 9=running, jumping, climbing between cage walls/perch/roof, uses limbs through a wide range of motion and activity.
(§6) b) Bradykinesia score: 0=normal speed and initiation of movement, 1=mild slowing of movement, 2=moderate slowing, difficulty initiating and maintaining movement, marked freezing, 3=akinetic, unable to move, with prolonged freezing episodes
(§7) c) Postural abnormality score: 0=normal, upright, holds head up, normal balance, 1=abnormal, crouched, face down, may lose balance. […]
(§8) Behaviour was assessed for 6 hours post drug administration. Behavioural test 1, activity, was assessed every 5 minutes for 6 hours post drug administration. Behavioural tests 2 and 3, parkinsonian disability and dyskinesia, respectively, were assessed for 10 minutes every 30 minutes over the course of 6 hours, by post hoc analysis of video-recordings by an observer blinded to the treatment. […]

[2] = test system: MPTP-lesioned marmoset model of Parkinson's disease; assay: L-DOPA-induced dyskinesia score, MPTP-lesioned marmoset (Example 2); format: in vivo, marmosets (Callithrix jacchus); conditions: for Dyskinesia: first hour post drug administration, vs L-DOPA + vehicle, p<0.05
Procedure: as §1, §2, §3
3)Dyskinesia—non-parametric measures based on the following scale
Dyskinesia score: 0=Absent, 1=Mild, fleeting, 2=Moderate, not interfering with normal activity, 3=Marked, at times interfering with normal activity, 4=Severe, continuous, replacing normal activity.
(§9) Behaviour was assessed for 6 hours post drug administration. Behavioural test 1, activity, was assessed every 5 minutes for 6 hours post drug administration. Behavioural tests 2 and 3, parkinsonian disability and dyskinesia, respectively, were assessed for 10 minutes every 30 minutes over the course of 6 hours, by post hoc analysis of video-recordings by an observer blinded to the treatment. The score given in each 10 minutes time period represents the maximum score achieved during that time period.
Four doses of compound A drug (1 mg/kg, 3 mg/kg, 10 mg/kg and 30 mg/kg) in combination with a single dose of L-DOPA were tested using a randomized treatment schedule. The actions of each of these four combination therapies were compared with that of L-DOPA plus the appropriate vehicle. Thus, a total of five treatments were given.

[3] = test system: MPTP-lesioned marmoset model of Parkinson's disease; assay: Parkinsonian disability score with L-DOPA, MPTP-lesioned marmoset (Example 1); format: in vivo, marmosets (Callithrix jacchus); conditions: L-DOPA 12 mg/kg alone, oral
Procedure: (§10) This study was designed to investigate whether levetiracetam has anti-dyskinetic activity in the 1-methyl-4-phenyl-1,2,3,6-tetrahydropyridine (MPTP)-lesioned marmoset model of Parkinson's disease. The effect of levetiracetam on L-3,4-dihydroxyphenylalanine (L-DOPA)-induced dyskinesias and alleviation of parkinsonism symptoms was investigated.
(§11) The study was performed on seven adult marmosets (Callithrix jacchus) bred in a closed colony. The marmosets were rendered parkinsonian by subcutaneous injection of 2 mg/kg MPTP for 5 consecutive days. The marmosets were allowed to recover for 18 weeks until their parkinsonism became stable. The degree of activity and disability before and after MPTP treatment was assessed using a combination of scales that measure locomotor activity, mobility, bradykinesia and posture. Animals were treated with L-DOPA (12.5 mg/kg b.i.d. for 6 weeks) to prime them to elicit dyskinesia.
as §3, §4, §5, §6, §7, §8

[4] = test system: MPTP-lesioned marmoset model of Parkinson's disease; assay: L-DOPA-induced dyskinesia score, MPTP-lesioned marmoset (Example 1); format: in vivo, marmosets (Callithrix jacchus); conditions: L-DOPA 12 mg/kg alone, oral
Procedure: as §10, §11, §3
3)Dyskinesia—non-parametric measures based on the following scale Dyskinesia score: 0=Absent, 1=Mild, fleeting, 2=Moderate, not interfering with normal activity, 3=Marked, at times interfering with normal activity, 4=Severe, continuous, replacing normal activity.
as §9
Table 1 outlines the randomised treatment schedule i.e. three doses of levetiracetam drug in combination with a single dose of L-DOPA. The actions of each of these three combination therapies were compared with that of L-DOPA plus the appropriate vehicle. Thus, a total of four treatments were given.

[5] = A. J. GOWER et al., Eur. J. Pharmacol., 222, (1992), 193-203; cited from earlier work
[6] = L-DOPA alone (13.9+/−0.8 mg/kg), oral

CC[C@@H](C(N)=O)N1C[C@H](C=C(F)F)CC1=O [compound A, (2S)-2-[(4S)-4-(2,2-difluorovinyl)-2-oxopyrrolidinyl]butanamide]
Disability scores ([1]; any time-point after one hour post drug administration): no significant differences | Disability scores ([1]; first hour post drug administration): no significant differences | Reversal of parkinsonian symptoms at peak effect, compared with L-DOPA monotherapy ([1]; compound A 1 to 30 mg/kg + L-DOPA 13.9+/−0.8 mg/kg): same magnitude | Dyskinesia ([2]; compound A 10 mg/kg + L-DOPA 13.9+/−0.8 mg/kg oral): significantly reduced | Dyskinesia ([2]; compound A 30 mg/kg + L-DOPA 13.9+/−0.8 mg/kg oral): significantly reduced | Dyskinesia scores ([2]; compound A 1, 3, 10 and 30 mg/kg + L-DOPA, any time-point after one hour post drug administration, p>0.05): no significant differences

N[C@@H](Cc1ccc(O)c(O)c1)C(=O)O [L-DOPA, L-3,4-dihydroxyphenylalanine]
Effect on parkinsonian symptoms [3]: reversed parkinsonian symptoms | Effect on parkinsonian symptoms [1, 6]: reversed parkinsonian symptoms | Dyskinesia accompanying alleviation of parkinsonian symptoms [2, 6]: accompanied by dyskinesia | Dyskinesia accompanying alleviation of parkinsonian symptoms [4]: severe dyskinesia

CC[C@H](C(N)=O)N1CCCC1=O [(R)-(+)-α-ethyl-2-oxo-1-pyrrolidine-acetamide]
Activity in the treatment of epilepsy [5]: completely devoid of activity
